Legend:
[1] = tested on: water-immersion stress ulcer; test: Antiulcer activity against water-immersion stress ulcer; assay type: in vivo, Wistar strain male rats; details: rats; for Water-Immersion Stress Ulcer Ulcer Index: 100 mg/kg p.o. 30 min before 6 h water immersion at 22°±1° C.; for inhibition in vivo at 100 mg/kg: Rattus norvegicus, po, 6 h, read-out: Water-Immersion Stress Ulcer Inhibition Rate
Procedure: A suspension of each test compound in a 5% gum arabic aqueous solution was orally given to Wistar strain male rats (at the age of 7 to 8 weeks, weighing 180 to 250 g; 7-9 rats in the group administered with the test compound; 10-16 rats in the control group) fasted for 24 hours at a dose of 100 mg of the test compound/5 ml/kg. Thirty minutes after administration, the animal was immersed in a water bath at 22°±1° C. up to the xiphisternum using a stress cage made by Tokyo University, Faculty of Pharmacology, to apply a stress load for 6 hours. After applying the stress load, the rats had the cervical vertebra dislocated to death. Then, the stomach was excised and, spotted and linear erosion and a long diameter of any ulcer were microscopically measured to determine an ulcer index and an inhibition rate.
(§1) In the control group, a 5% gum arabic aqueous solution was orally administered at a dose of 5 ml/kg.

aspirin-induced ulcer = test: Antiulcer activity against aspirin-induced ulcer model; assay type: in vivo, Wistar strain male rats; details: rats, 100 mg/kg p.o. 30 min before aspirin 200 mg/kg p.o.; for Aspirin Induced Ulcer Ulcer Index: stomach excised 7 h after aspirin; for inhibition in vivo at 100 mg/kg: Rattus norvegicus, po, 7 h, read-out: Aspirin Induced Ulcer Inhibition Rate
Procedure: Thirty minutes after administration, aspirin was further orally administered at a dose of 200 mg/kg. Seven hours after administration of aspirin, the stomach was excised under ethereal anesthesia and spotted and linear erosion and a long diameter of any ulcer were microscopically measured to determine an ulcer index and an inhibition rate.
as §1

gastric juice secretion = test: Gastric juice secretion inhibition activity (pyloric ligature); assay type: in vivo, Wistar strain male rats; details: rats, 100 mg/kg p.o.; for inhibition in vivo at 100 mg/kg: Rattus norvegicus, po, read-out: Volume Inhibition Rate
Procedure: A suspension of each test compound in a 5% gum arabic aqueous solution was orally given to Wistar strain male rats (at the age of 7 to 8 weeks, weighing 180 to 250 g; 7-9 rats in the group administered with the test compound; 14-17 rats in the control group) fasted for 24 hours at a dose of 100 mg of the test compound/5 ml/kg. Thirty minutes after administration, pyloric ligature was made under ethereal anesthesia. Four hours thereafter, the stomach was excised under ethereal anesthesia to collect gastric juice. The collected gastric juice was centrifuged (2500 rpm) at 4° C. for 10 minutes. After the supernatant was collected, the amount of the gastric juice and its pH were measured using a pH meter. Furthermore, the amount of free hydrochloric acid and the total acidity were measured with Topfer reagent and phenolphthalein reagent, respectively. Using a part of the gastric juice, pepsin output in the gastric juice was measured using casein as a substrate in a manner similar to the method of Anson et al.
as §1

ddy strain male mice = test: Acute toxicity; assay type: in vivo; details: 7 days observation
Procedure: A suspension of each test compound in a 5% gum arabic aqueous solution was orally given to ddy strain male mice (at the age of 4 to 5 weeks, weighing 25 to 35 g; 2 to 9 mice in one group). For 7 days after the administration, the mice were observed as to if they were dead or alive. Based on the number of deaths, the LD50 value was determined by the Probit method.

[2] = 100 mg/kg p.o. 30 min before 6 h water immersion, vs control group
[3] = pyloric ligature 30 min later, gastric juice collected after 4 h
[4] = pyloric ligature, 4 h, first part of Table 5
[5] = pyloric ligature, 4 h, second part of Table 5
[6] = 4 h, pyloric ligature, 4 h, vs control group

Row | Compound | Water-Immersion Stress Ulcer Ulcer Index [1] [mm^2] | Aspirin Induced Ulcer Ulcer Index (aspirin-induced ulcer) [mm^2] | Volume (gastric juice) (gastric juice secretion; [3]) [mL] | Acidity (gastric juice secretion; pyloric ligature, 4 h) [mEq/l] | Free HCl (gastric juice secretion; pyloric ligature, 4 h) [mEq/l] | Pepsin Activity (gastric juice secretion; pyloric ligature, 4 h) [units/ml] | Pepsin Output (gastric juice secretion; pyloric ligature, 4 h) [units/hr] | pH (gastric juice) (gastric juice secretion; [4]) | inhibition in vivo at 100 mg/kg [1, 2] [%] | inhibition in vivo at 100 mg/kg (aspirin-induced ulcer; vs control group) [%] | Mortality (No. death/No. treated) (ddy strain male mice; 500 mg/kg p.o) | Mortality (No. death/No. treated) (ddy strain male mice; 1000 mg/kg p.o) | Acid Output (gastric juice secretion; [5]) [mcEq/100 g] | Free HCl (gastric juice secretion; [5]) [mcEq/100 g] | Pepsin Output (gastric juice secretion; [5]) [mg tyrosine/100 g] | Volume (gastric juice) (gastric juice secretion; [5]) [ml/100 g] | pH (gastric juice) (gastric juice secretion; [5]) | inhibition in vivo at 100 mg/kg (gastric juice secretion; [6]) [%] | also measured
1 | 2-Methyl-3-thenoyloxymethylimidazo[2,1-b]benzothiazole [Example 19] | 11.3 ± 2.6 | 63.7 ± 8.1 | 4.9 ± 0.5 | 78.9 ± 2.7 | 48.6 ± 3.4 | 99.6 ± 2.2 | 122.8 ± 14.4 | 1.56 ± 0.10 | – | – | – | – | – | – | – | – | – | – | Water-Immersion Stress Ulcer Inhibition Rate [1, 2]: 51.5%; Aspirin Induced Ulcer Inhibition Rate (aspirin-induced ulcer; vs control group): 4.6%; Volume Inhibition Rate (gastric juice secretion; pyloric ligature, 4 h, vs control group): 18.3%
2 | Cc1nc2sc3ccccc3n2c1C(C)O (stereo not shown) [Example 4, 3-(1-Hydroxyethyl)-2-methylimidazo[2,1-b]benzothiazole] | 7.3 ± 2.5 | 8.0 ± 2.9 | – | – | – | – | – | – | 69.2 | 88.7 | 0/5 | 0/5 | 30.8 ± 5.1 | 8.0 ± 2.9 | 9.9 ± 1.3 | 0.69 ± 0.09 | 2.36 ± 0.21 | – | –
3 | CCCC(O)c1c(C)nc2sc3ccccc3n12 (stereo not drawn) [Example 5, 3(α-Hydroxy)butyl-2-methylimidazo[2,1-b]benzothiazole] | 20.4 ± 4.2 | 43.8 ± 10.3 | 6.7 ± 0.7 | 45.0 ± 5.6 | 10.4 ± 2.1 | 86.2 ± 1.9 | 139.6 ± 16.7 | 2.17 ± 0.12 | 5.1 | 23.7 | – | – | – | – | – | – | – | -13.6 | –
4 | Cc1nc2sc3ccccc3n2c1C(C)(C)O [Example 6, 3(α-Hydroxy-1-methyl)ethyl-2-methylimidazo[2,1-b]benzothiazole] | 11.7 ± 4.5 | 55.1 ± 8.7 | – | – | – | – | – | – | 50.6 | 22.3 | 0/5 | 0/5 | 169.9 ± 38.0 | 138.6 ± 37.3 | 23.4 | 1.90 ± 0.33 | 1.24 ± 0.07 | – | –
5 | Cc1nc2sc3ccccc3n2c1C(O)c1ccccc1 (stereo not shown) [Example 7, 3(αHydroxy)benzyl-2-methylimidazo[2,1-b]benzothiazole] | 17.9 ± 4.5 | 39.6 ± 3.7 | 5.4 ± 0.6 | 69.1 ± 7.0 | 39.7 ± 5.0 | 99.5 ± 4.1 | 135.0 ± 18.1 | 1.65 ± 0.13 | 16.7 | 31 | – | – | – | – | – | – | – | 8.5 | –
6 | COc1ccc2c(c1)sc1nc(C)c(CO)n12 [Example 9, 7-Methoxy-2-methylimidazo[2,1-b]benzothiazole-3-methanol] | 6.4 ± 1.2 | 64.8 ± 7.5 | 5.3 ± 0.9 | 76.2 ± 4.3 | 42.6 ± 5.2 | 102.2 ± 3.9 | 135.5 ± 22.7 | 1.55 ± 0.08 | 51.5 | 15 | – | – | – | – | – | – | – | 15.9 | –
7 | COc1cc2c(sc3nc(C)c(CO)n32)c(OC)c1OC [Example 10, 6,7,8-Trimethoxy-2-methylimidazo[2,1-b]benzothiazole-3-methanol] | 9.6 ± 2.1 | 53.7 ± 8.3 | 5.2 ± 0.5 | 87.3 ± 3.5 | 50.4 ± 3.2 | 103.5 ± 1.8 | 133.7 ± 10.8 | 1.47 ± 0.03 | 27.3 | 29.5 | – | – | – | – | – | – | – | 17.5 | –
8 | Cc1nc2sc3cc(F)ccc3n2c1CO [Example 11, 7-Fluoro-2-methylimidazo[2,1-b]benzothiazole-3-methanol] | 10.9 ± 4.4 | 34.2 ± 2.2 | – | – | – | – | – | – | 54 | 51.8 | 0/5 | 0/5 | 118.8 ± 37.2 | 89.1 ± 35.5 | 16.7 ± 2.9 | 1.40 ± 0.34 | 1.58 ± 0.15 | – | –
9 | Cc1nc2sc3ccccc3n2c1COC(C)C.Cl [Example 13, 2-Methylimidazo[2,1-b]benzothiazole-3-methanol isopropyl ether hydrochloride] | – | 24.4 ± 3.3 | – | – | – | – | – | – | – | 71 | 0/5 | 5/5 | 57.6 ± 16.4 | 22.3 ± 10.7 | 13.0 ± 2.3 | 1.29 ± 0.23 | 2.70 ± 0.53 | – | –
10 | COc1ccc(COCc2c(C)nc3sc4ccccc4n23)cc1 [Example 14, 2-Methylimidazo[2,1-b]benzothiazole-3-methanol (4-methoxy-benzyl) ether] | 7.5 ± 2.2 | 71.5 ± 8.0 | – | – | – | – | – | – | 39 | 15 | 0/5 | 0/5 | 196.8 ± 38.0 | 144.9 ± 35.0 | 22.4 ± 3.8 | 2.63 ± 0.35 | 1.42 ± 0.08 | – | –
11 | COc1ccccc1C(=O)OCc1c(C)nc2sc3ccccc3n12 [Example 18] | 13.5 ± 4.1 | 45.3 ± 10.4 | 8.1 ± 0.8 | 82.1 ± 5.0 | 51.7 ± 5.8 | 91.4 ± 3.3 | 186.6 ± 24.3 | 1.45 ± 0.06 | 42.1 | 32.2 | – | – | – | – | – | – | – | -35 | –
12 | CCNC(=O)OCc1c(C)nc2sc3ccccc3n12 [Example 20, 2-Methylimidazo[2,1-b]benzothiazole 3-methyl ethyl carbamate] | 4.0 ± 1.3 | 56.2 ± 6.8 | 5.9 ± 0.3 | 54.5 ± 7.0 | 26.1 ± 5.5 | 91.6 ± 1.7 | 136.0 ± 7.2 | 1.89 ± 0.12 | 69.7 | 26.2 | – | – | – | – | – | – | – | 6.3 | –

Reference: US4968708A, “Imidazo[2,1-B]benzothiazole compounds and antiulcer compositions containing the same” (priority 1988, dated 1990)
